Laboratory results as given in patent US20220315534A1, “BETA ADRENERGIC AGONIST AND METHODS OF USING THE SAME” (Curasen Therapeutics, Inc., priority 2019, published 2022).

Assays:
[1] = biological target: T1, β1-adrenergic receptor (B1-AR) (Homo sapiens, UniProt P08588); test: cAMP Gs dynamic HTRF assay, cells expressing β1-adrenergic receptor; assay type: cell-based; conditions: CHO-K1 (HitHunter) cells; read-out: Average pEC50 [Receptor subtype: B1-AR; Cell type: CHO-K1 (HitHunter)] (converted)
T1 construct: expressed in transfected cells
T1 sequence (P08588 whole entry): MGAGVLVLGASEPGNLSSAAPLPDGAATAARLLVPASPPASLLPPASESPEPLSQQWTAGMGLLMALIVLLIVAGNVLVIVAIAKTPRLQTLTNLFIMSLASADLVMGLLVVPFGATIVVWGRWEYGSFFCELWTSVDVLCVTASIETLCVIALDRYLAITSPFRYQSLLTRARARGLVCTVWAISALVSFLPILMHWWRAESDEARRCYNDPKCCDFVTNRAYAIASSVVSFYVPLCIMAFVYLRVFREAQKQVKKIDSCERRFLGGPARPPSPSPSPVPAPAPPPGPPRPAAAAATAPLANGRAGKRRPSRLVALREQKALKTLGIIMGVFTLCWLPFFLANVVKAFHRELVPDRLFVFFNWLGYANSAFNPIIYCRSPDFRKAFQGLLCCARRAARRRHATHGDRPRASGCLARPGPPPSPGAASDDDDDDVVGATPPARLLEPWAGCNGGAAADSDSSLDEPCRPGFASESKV
Method: (§1) cAMP homogeneous time-resolved fluorescence (HTRF): experimental methods. Compound efficacy is determined using the cAMP Gs dynamic HTRF assay (Cisbio, catalog #62AM4PEC) largely following the manufacturer's instructions, also detailed below.
(§2) Standard serial dilution curves are 10-point, 5-fold dilutions starting from a highest concentration of 10 μM. […] Assay plates are centrifuged at 500×g for 10 seconds. Compounds and IBMX are prepared at 2× final dose to compensate for addition of cells.
(§3) Cell preparation: 1× stimulation buffer, washing PBS (Dulbecco's phosphate-buffered saline, —Mg —Ca; Caisson Labs, catalog #PBL01), assay PBS (Dulbecco's phosphate-buffered saline, +Mg, +Ca; Caisson Labs, catalog #PBL02) and Versene (0.02% EDTA disodium salt solution in PBS without calcium or magnesium; Caisson Labs, catalog #EDL01) are pre-warmed to 37° C. Cells expressing beta-adrenergic receptor were washed in washing PBS to remove growth medium and then released from the surface by incubating with Versene for 5-10 minutes at 37° C. Cells are harvested using assay PBS, counted manually by hemocytometer or by an automated cell counter, pelleted by centrifugation (200×g, 5 minutes) and resuspended in 37° C. 1× stimulation buffer to a final density of […]. 5 μL of the suspended cell solution (7500 cell total) are added to all wells of the 384 well assay plate, the assay plate was covered with an Axygen® plate seal (Corning PCR-SP) and incubated in a humidified 37° C. environment supplemented with 5% CO2 for 30 minutes.
(§4) HTRF reagent addition, reading and data analysis: After 30 minutes of cell stimulation with test compound, the assay plates are centrifuged at 500×g for 10 seconds, and incubation was stopped with the addition of 5 μL cAMP-D2 acceptor, diluted 1:21 in detection and lysis buffer 2 (Cisbio 62CL2FDF) was added to all cells. Subsequently, 5 μL Anti-cAMP-Eu Donor, diluted 1:21 in detection and lysis buffer 2, was added to cells. Plates were sealed and reactions gently ‘vortexed’ at 900 rpm on a Heidolph Titramax 1000 for at least 30 minutes at room temperature. Plates are centrifuged again at 500×g for 10 seconds, and HTRF was measured using a Tecan Spark plate reader at 50 flashes per well. […] Potency estimates (EC50 and pEC50) are derived from the four-parameter nonlinear regression of the concentration-effect curve and an estimate of relative efficacy is determined by comparing the magnitude of the test compound HTRF signal window (min-max dose) with the signal window of the full agonist control, isoproterenol.

[2] = biological target: T2, β2-adrenergic receptor (B2-AR) (Homo sapiens, UniProt P07550); test: cAMP Gs dynamic HTRF assay, cells expressing β2-adrenergic receptor; assay type: cell-based; conditions: CHO-K1 (HitHunter) cells; read-out: Average pEC50 [Receptor subtype: B2-AR; Cell type: CHO-K1 (HitHunter)] (converted)
T2 construct: expressed in transfected cells
T2 sequence (P07550 whole entry): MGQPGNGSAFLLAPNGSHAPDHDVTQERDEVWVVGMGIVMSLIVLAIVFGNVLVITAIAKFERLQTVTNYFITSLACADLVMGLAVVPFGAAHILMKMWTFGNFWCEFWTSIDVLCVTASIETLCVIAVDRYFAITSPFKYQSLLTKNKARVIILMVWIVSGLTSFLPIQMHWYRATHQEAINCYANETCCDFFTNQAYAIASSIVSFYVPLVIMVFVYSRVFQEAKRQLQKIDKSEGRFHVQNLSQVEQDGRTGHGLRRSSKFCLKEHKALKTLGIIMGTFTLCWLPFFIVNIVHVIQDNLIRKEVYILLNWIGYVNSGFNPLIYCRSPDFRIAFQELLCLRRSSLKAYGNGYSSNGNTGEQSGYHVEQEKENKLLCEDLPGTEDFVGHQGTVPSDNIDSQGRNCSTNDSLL
Method: as §1, §2, §3, §4

SMILES | EC50 [1] | EC50 [2]
Cc1cc([C@@H](O)CNC(C)(C)C)c2cn[nH]c2c1 [Compound 04-109] | 10 to 100 nM | < 10 nM
CC(C)(C)NC[C@H](O)c1ccnc2cccnc12 [Compound 04-73] | 10 to 100 nM | 10 to 100 nM
CC(C)NC[C@H](O)c1cccc2[nH]c3ccccc3c12 [Compound 04-56] | < 10 nM | < 10 nM
Cc1nc([C@@H](O)CNC(C)(C)C)cnc1N [Compound 02-4] | 100 to 1000 nM | > 1000 nM
Cc1ccc2[nH]ncc2c1[C@@H](O)CNC(C)(C)C [Compound 04-138] | > 1000 nM | 100 to 1000 nM
CC(C)(C)NC[C@H](O)c1cccc2c1C(F)(F)C(=O)N2 [Compound 04-158] | 10 to 100 nM | < 10 nM
CC(C)(C)NCC(O)c1ccc2ccc(C(F)(F)F)cc2[n+]1[O-] (centres unmarked) [Compound 04-137] | 100 to 1000 nM | 10 to 100 nM
CC(C)(C)NC[C@H](O)c1cccc2[nH]ncc12 [Compound 04-25] | < 10 nM | < 10 nM
Cc1nc(N)c(C#N)cc1[C@H](O)CNC(C)(C)C [Compound 02-11] | > 1000 nM | > 1000 nM
CC(C)(C)NC[C@@H](O)c1ccc2cccc(F)c2n1 [Compound 04-42] | 100 to 1000 nM | 100 to 1000 nM
CC(C)(C)NC[C@H](O)c1cccc2[nH]cnc12 [Compound 04-24] | 10 to 100 nM | 10 to 100 nM
Cc1nc(N)c(C#N)cc1[C@@H](O)CNC(C)(C)C [Compound 02-10] | > 1000 nM | 100 to 1000 nM
Cc1cc2c([C@@H](O)CNC(C)(C)C)cccc2[nH]c1=O [Compound 04-18] | < 10 nM | 10 to 100 nM
CC1(NC[C@H](O)c2cc(F)cc3[nH]ncc23)CCC1 [Compound 04-148] | < 10 nM | < 10 nM
CC(C)(C)NC[C@H](O)c1cc(F)cc2cccnc12 [Compound 04-76] | < 10 nM | < 10 nM
CC(C)(C)NC[C@@H](O)c1cccc2c(C#N)ccnc12 [Compound 04-77] | – | > 1000 nM
CC(C)(C)NC[C@@H](O)c1nccc2[nH]ncc12 [Compound 04-145, (R)-2-(tert-butylamino)-1-(1H-pyrazolo[4,3-c]pyridin-4-yl)ethan-1-ol] | > 1000 nM | > 1000 nM
CC(C)(C)NC[C@@H](O)c1ccc(F)c2[nH]c(=O)ccc12 [Compound 04-16] | 100 to 1000 nM | 10 to 100 nM
CC(C)(C)NC[C@H](O)c1nc(C(F)(F)F)cc2ccccc12 [Compound 04-91] | > 1000 nM | –
CC(C)(C)NC[C@H](O)c1cccc2[nH]cc(F)c12 [Compound 04-112] | < 10 nM | < 10 nM
CC(C)(C)NC[C@H](O)c1c2cn[nH]c2cc[n+]1[O-] [Compound 04-106] | 100 to 1000 nM | 100 to 1000 nM

SMILES | EC50 [1] | EC50 [2]
CC(C)(C)NC[C@@H](O)c1cccc2cccnc12 [Compound 04-93] | 100 to 1000 nM | 100 to 1000 nM
CC(C)(C)NC[C@H](O)c1cccc2c1CC(=O)N2 [Compound 04-110] | > 1000 nM | > 1000 nM
CC(C)(C)NC[C@@H](O)c1ccc2cccc(C#N)c2n1 [Compound 04-134] | 10 to 100 nM | 100 to 1000 nM
Cc1cc2c([C@H](O)CNC(C)(C)C)cccc2[nH]c1=O [Compound 04-17] | 100 to 1000 nM | > 1000 nM
CC(C)(C)NC[C@@H](O)c1cccc(O)n1 [Compound 02-8] | > 1000 nM | > 1000 nM
CC(C)(C)NC[C@H](O)c1ccc2[nH]ncc2c1 [Compound 04-48] | > 1000 nM | > 1000 nM
CC(C)CNC[C@H](O)c1cc(F)cc2[nH]ncc12 [Compound 04-146] | < 10 nM | < 10 nM
CC(C)(C)NC[C@@H](O)c1ccc2ccc(C(F)(F)F)cc2n1 [Compound 04-136] | > 1000 nM | 100 to 1000 nM
CC(C)(C)NC[C@H](O)c1cccc2[nH]c3cccnc3c12 [Compound 04-119] | < 10 nM | < 10 nM
CC(C)(C)NC[C@H](O)c1cccc2[nH]c3ccccc3c12 [Compound 04-57] | < 10 nM | < 10 nM
CC(C)(C)NC[C@H](O)c1ccc2[nH]cnc2c1 [Compound 04-124] | 10 to 100 nM | < 10 nM
CC(C)(C)NC[C@@H](O)c1ccc2cccc(Cl)c2n1 [Compound 04-40] | 10 to 100 nM | 10 to 100 nM
CC(C)(C)NC[C@@H](O)c1cccc2c(C(F)(F)F)ccnc12 [Compound 04-70] | – | < 10 nM
O[C@H](CNC1(C(F)(F)F)CC1)c1cccc2cccnc12 [Compound 04-68] | > 1000 nM | > 1000 nM
CC(C)(C)NC[C@H](O)c1cccc2oc(=O)ccc12 [Compound 04-3] | > 1000 nM | 100 to 1000 nM
Cc1nc2cc([C@@H](O)CNC(C)(C)C)ccc2[nH]1 [Compound 04-118] | > 1000 nM | > 1000 nM
Cc1ccnc2c([C@@H](O)CNC(C)(C)C)cccc12 [Compound 04-84] | < 10 nM | 10 to 100 nM
CC(C)(C)NC[C@H](O)c1ccc2cccc(Cl)c2n1 [Compound 04-39] | < 10 nM | < 10 nM
Cc1cc([C@@H](O)CNC(C)(C)C)cc2nc[nH]c12 [Compound 04-155] | > 1000 nM | 100 to 1000 nM
CC(C)(C)NC[C@H](O)c1ccc2c(n1)OCCO2 [Compound 04-7] | 10 to 100 nM | 10 to 100 nM
CC(C)(C)NC[C@@H](O)c1ccnc2[nH]ncc12 [Compound 04-126] | > 1000 nM | > 1000 nM

SMILES | EC50 [1] | EC50 [2]
CC(C)(C)NC[C@@H](O)c1c2cn[nH]c2cc[n+]1[O-] [Compound 04-107] | > 1000 nM | 100 to 1000 nM
CC(C)(C)NC[C@H](O)c1cccc2cccnc12 [Compound 04-94] | < 10 nM | < 10 nM
CC(C)(C)NCC(O)c1cccc2ccccc12 (centres unmarked) [Compound 04-98] | < 10 nM | 10 to 100 nM
CC(C)CNC[C@H](O)c1cccc2[nH]c(=O)ccc12 [Compound 04-143] | 10 to 100 nM | 10 to 100 nM
CC(C)(C)NC[C@H](O)c1cccc2[nH]ncc12 [Compound 04-153] | > 1000 nM | 10 to 100 nM
Cc1cc(N)nc([C@H](O)CNC(C)(C)C)c1 [Compound 02-12] | > 1000 nM | > 1000 nM
CC(C)(C)NC[C@H](O)c1ccc2c(c1)CC(=O)N2 [Compound 04-121] | – | > 1000 nM
CC(C)(C)NC[C@H](O)c1cccc2[nH]nc(C#N)c12 [Compound 04-151] | < 10 nM | 10 to 100 nM
CC(C)(C)NC[C@H](O)c1cccc(O)n1 [Compound 02-7] | > 1000 nM | > 1000 nM
CC(C)(C)NC[C@H](O)c1cccc2nccnc12 [Compound 04-75] | < 10 nM | < 10 nM
CC(C)(C)NC[C@H](O)c1nccc2[nH]c(=O)ccc12 [Compound 04-5, (S)-5-(2-(tert-butylamino)-1-hydroxyethyl)-1,6-naphthyridin-2(1H)-one] | > 1000 nM | > 1000 nM
CC(C)(C)NC[C@H](O)c1cccc2c(C#N)ccnc12 [Compound 04-78] | 100 to 1000 nM | –
CC(C)(C)NC[C@H](O)c1cccc2[nH]ccc12 [Compound 04-105] | > 1000 nM | > 1000 nM
CC1(NC[C@H](O)c2cc(F)cc3[nH]ncc23)CC1 [Compound 04-147] | < 10 nM | < 10 nM
Cn1c(=O)ccc2c([C@@H](O)CNC(C)(C)C)cccc21 [Compound 04-2] | 10 to 100 nM | < 10 nM
CC(C)(C)NC[C@H](O)c1c(Cl)ccc2[nH]ncc12 [Compound 04-139] | > 1000 nM | > 1000 nM
CC(C)(C)NCC(O)c1ccnc2ccccc12 (centres unmarked) [Compound 04-96] | 10 to 100 nM | 10 to 100 nM
CC(C)(C)NC[C@@H](O)c1cccc2oc(=O)ccc12 [Compound 04-14] | 100 to 1000 nM | < 10 nM
CC(C)(C)NC[C@H](O)c1ccc2ccc(C(F)(F)F)cc2n1 [Compound 04-36] | < 10 nM | < 10 nM
Cc1noc2cccc([C@H](O)CNC(C)(C)C)c12 [Compound 04-30] | > 1000 nM | –
CC(C)(C)NC[C@@H](O)c1c(F)ccc2cccnc12 [Compound 04-89] | > 1000 nM | –
